Reference: US20070161592A1, “Method of treating fear” (priority 2005, published 2007)

What was measured:
NMDAR-mediated signaling = details: intra-hippocampal injections; cited from earlier work
[1] = test system: pyramidal neurons in layer II/III of ACC slices; experiment: LTP induced by pairing training, whole-cell patch-clamp recordings in ACC slices; assay type: cell-based, mouse
Description: Experiments were performed in a recording chamber on the stage of an Axioskop 2FS microscope with infrared DIC optics for visualizing whole-cell patch clamp recordings. EPSCs were recorded from layer II-III neurons using an Axon 200B amplifier (Axon Instruments, CA) and stimulations were delivered using a bipolar tungsten stimulating electrode placed in layer V of the ACC. In hippocampal slices, EPSCs were evoked by stimulating the Schaffer collateral-commissural pathway. EPSCs were induced by repetitive stimulations at 0.02 Hz and neurons were voltage clamped at −70 mV. […] The first protocol involved paired presynaptic 80 pulses at 2 Hz with postsynaptic depolarization at +30 mV (referred to as pairing training). The second involved paired 3 presynaptic stimuli that caused 3 EPSPs (10 ms ahead) with 3 postsynaptic APs at 30 Hz, paired 15 times every 5 s (named as EPSPs-APs protocol). The third involved theta-burst stimulation (5 trains of burst with 4 pulses at 100 Hz, at 200 ms interval; repeated 4 times at intervals of 10 s; named as TBS). The NMDAR-mediated component of EPSCs was pharmacologically isolated in Mg^2+-free ACSF containing: CNQX (20 μM), glycine (1 μM) and picrotoxin (100 μM). […] Neurons were voltage clamped at −60 mV and NMDARs-mediated EPSCs were evoked at 0.05 Hz. Picrotoxin (100 μM) was always present to block GABAA receptor-mediated inhibitory synaptic currents. The access resistance was 15-30 MΩ and was monitored throughout the experiment. […] Results are expressed as means±SEM. Statistical comparisons were performed using the Student t-test.
Whole-cell patch-clamp recordings were conducted in visually identified pyramidal neurons in layer II/III of ACC slices. Pyramidal neurons were identified by injecting depolarized currents into neurons to induce action potentials. […] Pyramidal neurons were also identified based on the pyramid shape of their somata by putting Lucifer yellow into the intracellular solution (FIG. 1A).

NR1/NR2B = details: cited from earlier work
NR1/NR2A = details: cited from earlier work
[2] = test system: NMDAR-mediated currents in the hippocampus; experiment: NMDAR-mediated EPSCs in hippocampal CA1 neurons; assay type: cell-based, mouse; details: for depression of total NMDAR-mediated currents: hippocampal CA1 neurons
Description: (§1) Coronal brain slices ([…]) from 6-8-week-old C57BL/6 mice, containing ACC or hippocampus, were prepared using standard methods (Wei et al., 2001). Slices were transferred to a submerged recovery chamber containing oxygenated (95% O2 and 5% CO2) artificial cerebrospinal fluid (ACSF) (in mM: 124 NaCl, 4.4 KCl, 2 CaCl2, 1 MgSO4, 25 NaHCO3, 1 NaH2PO4, 10 glucose) at room temperature for at least 1 h.
(§2) Experiments were performed in a recording chamber on the stage of an Axioskop 2FS microscope with infrared DIC optics for visualizing whole-cell patch clamp recordings. EPSCs were recorded from layer II-III neurons using an Axon 200B amplifier (Axon Instruments, CA) and stimulations were delivered using a bipolar tungsten stimulating electrode placed in layer V of the ACC. In hippocampal slices, EPSCs were evoked by stimulating the Schaffer collateral-commissural pathway. EPSCs were induced by repetitive stimulations at 0.02 Hz and neurons were voltage clamped at −70 mV. The recording pipettes (3-5 MΩ) were filled with solution containing (mM) 145 K-gluconate, 5 NaCl, 1 MgCl2, 0.2 EGTA, 10 HEPES, 2 Mg-ATP, and 0.1 Na3-GTP (adjusted to pH 7.2 with KOH). After obtaining stable EPSCs for 10 min, three kinds of LTP induction paradigms were used within 12 min after establishing the whole-cell configuration to prevent wash out effect on LTP induction (Tsvetkov et al., 2002). The first protocol involved paired presynaptic 80 pulses at 2 Hz with postsynaptic depolarization at +30 mV (referred to as pairing training). The second involved paired 3 presynaptic stimuli that caused 3 EPSPs (10 ms ahead) with 3 postsynaptic APs at 30 Hz, paired 15 times every 5 s (named as EPSPs-APs protocol). The third involved theta-burst stimulation (5 trains of burst with 4 pulses at 100 Hz, at 200 ms interval; repeated 4 times at intervals of 10 s; named as TBS). The NMDAR-mediated component of EPSCs was pharmacologically isolated in Mg^2+-free ACSF containing: CNQX (20 μM), glycine (1 μM) and picrotoxin (100 μM). The patch electrodes contained (in mM) 102 cesium gluconate, 5 TEA-chloride, 3.7 NaCl, 11 BAPTA, 0.2 EGTA, 20 HEPES, 2 MgATP, 0.3 NaGTP, and 5 QX-314 chloride (adjusted to pH 7.2 with CsOH). Neurons were voltage clamped at −60 mV and NMDARs-mediated EPSCs were evoked at 0.05 Hz. Picrotoxin (100 μM) was always present to block GABAA receptor-mediated inhibitory synaptic currents. The access resistance was 15-30 MΩ and was monitored throughout the experiment. Data were discarded if access resistance changed by more than 15% during an experiment. Results are expressed as means±SEM. Statistical comparisons were performed using the Student t-test.
(§3) One possible mechanism is that NR2B-containing receptors may contribute more to total NMDA currents in ACC synapses than in hippocampal synapses. […] Application of 0.1 μM or 0.4 μM NVP-AAM077 depressed total NMDAR-mediated currents by 59.0±4.3% (n=5) and 63.2±1.7% (n=6) in the ACC respectively (FIG. 5). On the other hand, application of 0.3 μM or 3 μM Ro25-6981 attenuated total NMDAR-mediated currents by 18.0±1.9% (n=5) and 18.1±3.4% (n=7) in the ACC respectively, showing that 0.3 μM Ro25-6981 was sufficient to block the NR2B-mediated currents (FIG. 5). This experiment was repeated in hippocampal CA1 neurons. […] However, unlike in the ACC, application of 0.3 μM Ro25-6981 alone potentiated, rather than blocked, total NMDAR-mediated currents by 51.3±16.4% in the hippocampus (FIG. 5).
The same experiment was repeated in the hippocampus.

adult ACC neurons [3] = experiment: LTP induced by EPSPs-APs protocol in ACC slices; assay type: cell-based, mouse; details: 0.4 μM
Description: as §1
as §2, with “t-test. […]” for “t-test.”

adult ACC neurons [4] = experiment: LTP induced by theta-burst stimulation (TBS) in ACC slices; assay type: cell-based, mouse; details: 0.4 μM
Description: as §1
as §2, with “t-test. […]” for “t-test.”

[5] = test system: NMDAR-mediated currents in the ACC; experiment: NMDAR-mediated EPSCs in the ACC; assay type: cell-based, mouse
Description: as §1, §2, §3
The relative percentages of NR2A- and NR2B-mediated currents were determined by applying specific antagonists, NVP-AAM077 (0.4 μM) and Ro25-6981 (0.3 μM). The concentrations used here were based on the results from FIG. 5 and a recent study performed in the hippocampus (Liu et al., 2004). Application of NVP-AAMO77 depressed total NMDAR-mediated currents by 63.2±1.7% and the addition of Ro25-6981 to the same neuron further reduced currents by 13.7±1.4% (n=6) in the ACC (FIG. 6). […]

[6] = FIG. 1E/F, BAPTA in the intracellular solution

## C[C@]12N[C@H](Cc3ccccc31)c1ccccc12 [MK-801]
NMDAR-mediated signaling
  contextual freezing: reduced contextual freezing

## NC(CCCP(=O)(O)O)C(=O)O (centres unmarked) [AP-5]
[1]; AP-5 50 μM
  synaptic responses after pairing training (LTP), % of baseline: 97.8±5.7%
[1]; [6]
  effect on LTP induced by pairing training: completely blocked

## O=C(O)CN(CC(=O)O)c1ccccc1OCCOc1ccccc1N(CC(=O)O)CC(=O)O [BAPTA]
[1]; 11 mM BAPTA in the pipette solution
  synaptic responses after pairing training (LTP), % of baseline: 106.1±10.3%
[1]; [6]
  effect on LTP induced by pairing training: completely blocked

## CC(C(O)c1ccc(O)cc1)N1CCC(Cc2ccccc2)CC1 (centres unmarked) [ifenprodil]
NR1/NR2B
  IC50: 0.34 µM
[1]; 3 μM
  synaptic responses after pairing training (LTP), % of baseline: 128.1±7.4%
[1]; 3 μM, FIG. 3
  effect on LTP induced by pairing training: partially depressed
NR1/NR2A
  IC50: 146 µM

## C[C@H](NC(c1cccc2[nH]c(=O)c(=O)[nH]c12)P(=O)(O)O)c1ccc(Br)cc1 (some centres unmarked) [NVP-AAM077]
NR1/NR2B
  IC50: 1.8 µM
[2]; 0.1 μM
  depression of total NMDAR-mediated currents: 54.4±3.2%
[2]; 0.4 μM
  depression of total NMDAR-mediated currents: 73.1±1.7%
[2]; hippocampus, bath application, FIG. 5
  effect on total NMDAR-mediated currents: depressed
Adult ACC neurons [3]
  potentiation after EPSPs-APs protocol, % of baseline: 102.0±11.5%
Adult ACC neurons [3]; FIG. 4C
  effect on LTP induced by EPSPs-APs protocol: blocked
[1]; 0.1 μM
  synaptic responses after pairing training (LTP), % of baseline: 134.9±6.9%
[1]; 0.1 μM, FIG. 3
  effect on LTP induced by pairing training: partially depressed
[1]; 0.4 μM
  synaptic responses after pairing training (LTP), % of baseline: 131.6±11.9%
[1]; 0.4 μM, FIG. 3
  effect on LTP induced by pairing training: partially depressed
NR1/NR2A
  IC50: 0.014 µM
Adult ACC neurons [4]
  LTP after TBS, % of baseline: 97.0±13.4%
Adult ACC neurons [4]; FIG. 4F
  effect on LTP induced by TBS: blocked
[5]; 0.1 μM
  depression of total NMDAR-mediated currents: 59.0±4.3%
[5]; 0.4 μM NVP-AAM077 added after first applying 0.3 μM Ro25-6981
  depression of total NMDAR-mediated currents: 64.2±3.0%
[5]; 0.4 μM, applied alone or first
  depression of total NMDAR-mediated currents: 63.2±1.7%
[5]; bath application of different doses, FIG. 5
  effect on total NMDAR-mediated currents: depressed
